Assay results from patent US20040235965A1, “Utilization of rutins and aescins in the treatment of circulatory disturbances of the ear” (priority 2001, published 2004).

How the values were obtained:
Assay type in all cases: in vivo, human
[1] = test system: patient with hearing impairment; assay: Pure-tone threshold audiometry in patient case examples under oral therapy; settings: 2250 mg troxerutin orally daily
Description: (§1) patient with tinnitus and vertigo attacks for 4 months.
Moderate hearing loss existed which was confirmed by pure-tone threshold audiometry to be a loss of hearing especially in the low and high frequency ranges. The underlying disease present was insulin-dependent diabetes mellitus. The findings existed for 4 months with the tendency for progressive worsening. […]

[2] = test system: patient with tinnitus and vertigo attacks; assay: Frequency of vertigo attacks in patient case example 3; settings: Case 3; 2250 mg troxerutin orally daily, 4-week therapy
Experimental: as §1
(§2) A 4-week therapy with 2250 mg of troxerutin orally daily followed. Under this, hearing improved in the 1st week by 10 dB in the low frequency range and by 5 dB in the high frequency range. There was no change in the frequency of vertigo attacks (1 to 4 times within 2 days).

[3] = test system: patient with tinnitus and vertigo attacks; assay: Tinnitus pattern in patient case example 3; settings: Case 3; 2250 mg troxerutin orally daily; 4th week of treatment
Experimental: as §1, §2

For “3′,4′,7-tris-O-(β-hydroxyethyl)rutin [troxerutin]”, the “improvement in the audiogram, high-frequency range, right ear” value ([1]; Case 1, 4-week therapy) was 10 dB, the “improvement of audiogram, high frequency range” value ([1]; Case 2, after 1 week) was “minor improvement” and the “improvement of audiogram, low frequency range” value ([1]; Case 2, after 1 week) was 10 dB. For the same substance, the “improvement of hearing, low frequency range” value ([1]; Case 3, moderate hearing loss, 1st week) was 10 dB, the “improvement of hearing, high frequency range” value ([1]; Case 3, 1st week) was 5 dB and the “improvement of hearing, high frequency range” value ([1]; Case 4, week 3) was “marginally”. For the same substance, the “improvement of hearing, low frequency range” value ([1]; Case 4, week 3) was 10 dB, the “frequency of vertigo attacks” value [2] was “no change” and the tinnitus pattern [3] was “intermittent with relatively frequent absences which lasted for hours”.
